Structures are written as SMILES. Converted amounts (≈) assume the structure as drawn. Like-named read-outs stand apart in the source and are kept apart here.

For one data set, the target named is T1, CYP1A2 (Homo sapiens, UniProt P05177).
T1 construct: enzyme, pooled human hepatic microsome 0.2 mg protein/mL; from tissue
T1 sequence (P05177 1-516): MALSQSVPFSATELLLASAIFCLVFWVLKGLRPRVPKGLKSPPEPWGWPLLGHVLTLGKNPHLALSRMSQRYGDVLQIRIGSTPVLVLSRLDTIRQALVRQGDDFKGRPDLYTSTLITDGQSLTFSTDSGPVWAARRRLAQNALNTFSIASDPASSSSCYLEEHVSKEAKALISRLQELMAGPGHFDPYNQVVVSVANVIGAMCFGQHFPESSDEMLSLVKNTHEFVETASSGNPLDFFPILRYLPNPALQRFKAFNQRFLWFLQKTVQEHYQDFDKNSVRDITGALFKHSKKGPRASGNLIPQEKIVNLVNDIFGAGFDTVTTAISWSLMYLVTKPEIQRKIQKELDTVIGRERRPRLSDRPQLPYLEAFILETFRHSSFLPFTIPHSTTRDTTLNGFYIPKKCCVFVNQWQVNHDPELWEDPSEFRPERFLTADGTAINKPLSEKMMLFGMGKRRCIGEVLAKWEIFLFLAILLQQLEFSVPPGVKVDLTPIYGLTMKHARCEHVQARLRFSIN
The data set is described as follows: CYP Inhibition Assay (7-ethoxyresorufin O-deethylation). It counts as in vitro ADME. Particulars: pooled human hepatic microsome, 0.5 μmol/L ethoxyresorufin, 15 minutes, 37° C. On the procedure:
Using commercially available pooled human hepatic microsome, and employing, as markers, 7-ethoxyresorufin O-deethylation (CYP1A2), tolbutamide methyl-hydroxylation (CYP2C9), mephenytoin 4'-hydroxylation (CYP2C19), dextromethorphan O-demethylation (CYP2D6), and terfenadine hydroxylation (CYP3A4) as typical substrate metabolism reactions of human main five CYP enzyme forms (CYP1A2, 2C9, 2C19, 2D6, 3A4) an inhibitory degree of each metabolite production amount by a test compound was assessed. […] After the centrifugation at 3000 rpm for 15 minutes, resorufin (CYP1A2 metabolite) in the supernatant was quantified by a fluorescent multilabel counter and tolbutamide hydroxide (CYP2C9 metabolite), mephenytoin 4' hydroxide (CYP2C19 metabolite), dextrorphan (CYP2D6 metabolite), and terfenadine alcohol (CYP3A4 metabolite) were quantified by LC/MS/MS. A reaction system containing only DMSO which is a solvent for dissolving a drug was adopted as a control (100%), and the remaining activity (%) was calculated, then IC50 was calculated by reverse presumption with a logistic model using a concentration and an inhibition rate.

The next data set can be described thus: Powder Solubility Test. The format is physicochemical. Particulars: thermodynamic from solid, shaken 1 hour at 37° C. The procedure: Appropriate amounts of the test substances are put into appropriate containers. To the respective containers are added 200 μL of JP-1 fluid (sodium chloride 2.0 g, hydrochloric acid 7.0 mL and water to reach 1000 mL), 200 μL of JP-2 fluid (phosphate buffer (pH 6.8) 500 mL and water 500 mL), and 200 μL of 20 mmol/L TCA (sodium taurocholate)/JP-2 fluid (TCA 1.08 g and JP-2 fluid to reach […]). IN the case that all amount of the test compound is dissolved after the addition of the test fluid, the test compound is added as appropriate. The containers are sealed, and shaken for 1 hour at 37° C. The mixtures are filtered, and 100 μL of methanol is added to each of he filtrate […] so that the filtrates are two-fold diluted. The dilution ratio may be changed if necessary. The dilutions are observed for bubbles and precipitates, and then the containers are sealed and shaken. Quantification is performed by HPLC with an absolute calibration method.

A further data set addresses T2, CYP3A4 (Homo sapiens, UniProt P08684).
T2 construct: enzyme, pooled human hepatic microsome 0.2 mg protein/mL; from tissue
The data set is described as follows: CYP3A4 (MDZ) MBI Test. The format is in vitro ADME. To be noted: pooled human liver microsomes, 10 μmol/L MDZ, pre-reaction 0 or 30 minutes. On the procedure: CYP3A4 (MDZ) MBI test is a test of investigating mechanism based inhibition (MBI) ability on CYP3A4 inhibition of a compound by enhancement of a metabolism reaction. CYP3A4 inhibition is evaluated using 1-hydroxylation reaction of midazolam (MDZ) by pooled human liver microsomes as an index.
The reaction conditions are as follows: substrate, 10 μmol/L MDZ; pre-reaction time, 0 or 30 minutes; substrate reaction time, 2 minutes; reaction temperature, 37° C.; protein content of pooled human liver microsomes, at pre-reaction time 0.5 mg/mL, at reaction time 0.05 mg/mL (at 10-fold dilution); concentrations of the compound of the present invention, 1, 5, 10, 20 μmol/L (four points).
Pooled human liver microsomes in K-Pi buffer (pH 7.4) and a solution of the compound of the present invention as a pre-reaction solution were added to a 96-well plate at the composition of the pre-reaction. […] After centrifuged at 3000 rpm for 15 minutes, 1-hydroxymidazolam in the supernatant was quantified by LC/MS/MS.
The sample adding DMSO to a reaction system instead of a solution of the compound of the present invention is adopted as a control (100%) because DMSO is used as a solvent to dissolve the compound of the present invention. […] Shifted IC value is calculated as “IC of preincubation at 0 min/IC of preincubation at 30 min”. […]

T2 sequence (P08684 whole entry): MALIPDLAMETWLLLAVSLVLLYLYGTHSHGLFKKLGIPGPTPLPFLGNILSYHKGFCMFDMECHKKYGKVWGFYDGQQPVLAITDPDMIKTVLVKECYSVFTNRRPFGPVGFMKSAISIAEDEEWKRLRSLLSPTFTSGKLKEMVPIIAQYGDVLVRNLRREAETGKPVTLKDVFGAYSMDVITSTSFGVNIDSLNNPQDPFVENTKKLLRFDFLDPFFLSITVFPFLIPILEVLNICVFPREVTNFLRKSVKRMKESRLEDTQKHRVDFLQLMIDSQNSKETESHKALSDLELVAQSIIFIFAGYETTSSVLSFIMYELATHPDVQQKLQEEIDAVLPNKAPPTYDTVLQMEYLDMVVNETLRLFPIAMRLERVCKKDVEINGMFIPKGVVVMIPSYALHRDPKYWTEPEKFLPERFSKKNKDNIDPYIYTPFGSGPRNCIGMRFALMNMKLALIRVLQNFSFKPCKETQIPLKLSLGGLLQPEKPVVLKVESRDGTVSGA

On to `Cc1ccc(-c2c([C@H](OC(C)(C)C)C(=O)O)c(C)c3c4c2cc(-c2ccnc(-c5ccc6c(cnn6C)c5)c2)n4CCN3CCN(C)C)cc1` [Compound I-034], for which the IC50 at CYP1A2 is over 20 µM. The solubility at 1 h in the data set “Powder Solubility Test” (aqueous buffer, JP-2 fluid (phosphate buffer pH 6.8), read-out: powder solubility, JP-2 fluid) was 0.603 µg/mL (≈ 0.899 µM); in “Powder Solubility Test” (pH 1.2, simulated gastric fluid, JP-1 fluid, read-out: powder solubility, JP-1 fluid) it was over 1000 µg/mL; in “Powder Solubility Test” (pH 6.8, fassgf or other biorelevant, 20 mmol/L TCA (sodium taurocholate)/JP-2 fluid, read-out: powder solubility, 20 mmol/L TCA/JP-2 fluid) it was over 1000 µg/mL. For the same molecule, the “CYP3A4 (MDZ) MBI (shifted IC)” value at CYP3A4 was “(−) (When a shifted IC is 1.0 or less, this is defined as negative)”.

(Values after patent publication US9975906B2, “Tricyclic heterocycle derivatives having HIV replication inhibitory effect” (Shionogi & Co., Ltd., priority 2014, dated 2018).)
